Assays:
[1] = target: T1, Alpha-2C adrenergic receptor (Homo sapiens, UniProt P18825); test: DRUGMATRIX: Adrenergic Alpha-2C radioligand binding (ligand: [3H] MK-912); type: cell membranes, Sf9, Membrane
T1 sequence (P18825 whole entry): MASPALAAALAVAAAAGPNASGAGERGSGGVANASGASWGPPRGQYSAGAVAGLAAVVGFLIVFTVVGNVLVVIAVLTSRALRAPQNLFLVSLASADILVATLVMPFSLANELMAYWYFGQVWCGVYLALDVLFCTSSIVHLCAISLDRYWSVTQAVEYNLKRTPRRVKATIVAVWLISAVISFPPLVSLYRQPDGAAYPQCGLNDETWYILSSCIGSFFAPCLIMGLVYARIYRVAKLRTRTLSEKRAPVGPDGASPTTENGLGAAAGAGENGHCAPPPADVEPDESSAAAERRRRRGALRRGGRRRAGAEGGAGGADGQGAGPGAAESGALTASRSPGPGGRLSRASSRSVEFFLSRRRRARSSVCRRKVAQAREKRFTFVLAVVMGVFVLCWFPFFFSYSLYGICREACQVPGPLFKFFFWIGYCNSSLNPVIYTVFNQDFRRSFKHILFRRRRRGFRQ

D(1A) dopamine receptor = D(1A) dopamine receptor (Homo sapiens, UniProt P21728); test: DRUGMATRIX: Dopamine D1 radioligand binding (ligand: [3H] SCH-23390); type: cell membranes, CHO, Membrane; conditions: cho; Not Active = under 50% inhibition at 10 µM
Chain of D(1A) dopamine receptor (P21728 whole entry): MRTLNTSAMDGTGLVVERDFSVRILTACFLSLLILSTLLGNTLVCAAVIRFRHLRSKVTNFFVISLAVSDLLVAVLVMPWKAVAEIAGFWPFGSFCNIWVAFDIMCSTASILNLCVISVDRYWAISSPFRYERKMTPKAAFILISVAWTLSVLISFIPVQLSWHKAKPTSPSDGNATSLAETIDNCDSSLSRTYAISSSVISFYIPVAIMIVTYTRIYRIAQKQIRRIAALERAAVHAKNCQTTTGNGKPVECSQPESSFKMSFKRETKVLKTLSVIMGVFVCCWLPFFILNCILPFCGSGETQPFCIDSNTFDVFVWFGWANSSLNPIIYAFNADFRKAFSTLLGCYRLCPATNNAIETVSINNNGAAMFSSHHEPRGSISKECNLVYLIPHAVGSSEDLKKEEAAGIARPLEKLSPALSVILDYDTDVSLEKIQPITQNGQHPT

D(3) dopamine receptor = D(3) dopamine receptor (Homo sapiens, UniProt P35462); test: DRUGMATRIX: Dopamine D3 radioligand binding (ligand: [3H] Spiperone); type: cell membranes, CHO, Membrane
Chain of D(3) dopamine receptor (P35462 whole entry): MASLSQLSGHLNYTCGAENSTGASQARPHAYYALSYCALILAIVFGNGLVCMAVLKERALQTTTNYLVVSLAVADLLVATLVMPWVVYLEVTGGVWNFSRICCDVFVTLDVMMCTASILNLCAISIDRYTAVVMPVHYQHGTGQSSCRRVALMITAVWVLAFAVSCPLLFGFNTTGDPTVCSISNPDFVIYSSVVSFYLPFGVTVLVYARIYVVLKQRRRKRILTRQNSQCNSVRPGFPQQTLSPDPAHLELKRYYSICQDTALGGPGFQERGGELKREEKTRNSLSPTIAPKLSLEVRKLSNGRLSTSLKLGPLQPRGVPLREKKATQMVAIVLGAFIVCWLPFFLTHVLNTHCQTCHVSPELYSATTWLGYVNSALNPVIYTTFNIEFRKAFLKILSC

[2] = target: T2, Muscarinic acetylcholine receptor M5 (Homo sapiens, UniProt P08912); type: cell membranes, CHO-K1, Membrane; also: in other assays of this panel Not Active means under 50% inhibition at 10 µM
T2 sequence (P08912 whole entry): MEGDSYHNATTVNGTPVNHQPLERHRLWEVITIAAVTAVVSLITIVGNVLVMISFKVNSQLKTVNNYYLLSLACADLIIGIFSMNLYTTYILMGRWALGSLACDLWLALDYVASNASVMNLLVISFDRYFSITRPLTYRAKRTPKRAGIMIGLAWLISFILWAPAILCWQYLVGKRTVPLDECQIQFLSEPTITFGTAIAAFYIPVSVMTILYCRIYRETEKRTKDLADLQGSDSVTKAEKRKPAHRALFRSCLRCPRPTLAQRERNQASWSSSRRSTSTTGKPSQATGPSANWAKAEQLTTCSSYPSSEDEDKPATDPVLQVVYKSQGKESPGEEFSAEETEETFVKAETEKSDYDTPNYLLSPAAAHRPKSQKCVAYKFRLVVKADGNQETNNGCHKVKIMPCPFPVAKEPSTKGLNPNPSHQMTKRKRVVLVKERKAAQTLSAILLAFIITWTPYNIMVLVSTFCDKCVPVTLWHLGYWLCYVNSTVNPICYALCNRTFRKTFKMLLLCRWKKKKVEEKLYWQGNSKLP

Mu-type opioid receptor = Mu-type opioid receptor (Homo sapiens, UniProt P35372); test: DRUGMATRIX: Opiate mu (OP3, MOP) radioligand binding (ligand: [3H] Diprenorphine); type: cell membranes, CHO-K1, Membrane; conditions: Not Active = under 50% inhibition at 10 µM
Chain of Mu-type opioid receptor (P35372 whole entry): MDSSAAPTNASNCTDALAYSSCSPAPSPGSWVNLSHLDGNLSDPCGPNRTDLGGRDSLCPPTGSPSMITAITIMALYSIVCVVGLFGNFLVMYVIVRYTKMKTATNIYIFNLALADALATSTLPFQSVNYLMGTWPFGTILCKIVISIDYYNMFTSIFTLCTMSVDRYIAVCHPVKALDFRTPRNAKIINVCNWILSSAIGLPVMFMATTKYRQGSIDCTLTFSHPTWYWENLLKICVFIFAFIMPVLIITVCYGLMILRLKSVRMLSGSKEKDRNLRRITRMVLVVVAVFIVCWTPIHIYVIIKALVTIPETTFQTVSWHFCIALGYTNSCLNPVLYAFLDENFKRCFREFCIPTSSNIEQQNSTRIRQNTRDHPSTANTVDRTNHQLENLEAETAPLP

Cytochrome P450 2C9 = Cytochrome P450 2C9 (Homo sapiens, UniProt P11712); conditions: bti-tn-5b1-4; also: in other assays of this panel Not Active means under 50% inhibition at 10 µM
Chain of Cytochrome P450 2C9 (P11712 whole entry): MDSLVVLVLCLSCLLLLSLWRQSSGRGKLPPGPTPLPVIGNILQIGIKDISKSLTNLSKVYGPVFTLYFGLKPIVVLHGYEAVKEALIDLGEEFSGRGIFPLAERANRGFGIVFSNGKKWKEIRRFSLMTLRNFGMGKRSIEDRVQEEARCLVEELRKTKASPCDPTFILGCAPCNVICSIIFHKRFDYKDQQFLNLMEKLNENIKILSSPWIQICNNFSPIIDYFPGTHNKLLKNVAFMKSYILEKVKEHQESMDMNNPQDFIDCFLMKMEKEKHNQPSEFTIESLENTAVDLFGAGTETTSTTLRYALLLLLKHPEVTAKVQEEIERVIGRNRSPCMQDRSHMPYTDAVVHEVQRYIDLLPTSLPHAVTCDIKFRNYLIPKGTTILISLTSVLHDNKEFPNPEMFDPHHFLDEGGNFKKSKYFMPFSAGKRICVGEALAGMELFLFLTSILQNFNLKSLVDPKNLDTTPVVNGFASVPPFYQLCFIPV

Row | Molecule | IC50 ([1]; sf9) | IC50 (D(1A) dopamine receptor) | IC50 ([2]; cho-k1) | IC50 (Mu-type opioid receptor; cho-k1) | IC50 (D(3) dopamine receptor; cho) | IC50 (Cytochrome P450 2C9) | Ki (Cytochrome P450 2C9) | also measured
1 | Cc1c(C)c2c(c(C)c1O)CCC(C)(CN1CCN(c3cc(N4CCCC4)nc(N4CCCC4)n3)CC1)O2 (configuration not stated) | Not Active | Not Active | Not Active |  |  |  |  | IC50 (D(3) dopamine receptor; read-out: IC50): 5200 nM; Ki (D(3) dopamine receptor; read-out: Ki): 1770 nM; Ki (Mu-type opioid receptor): 4360 nM; IC50 (Mu-type opioid receptor; read-out: IC50): 10700 nM
2 | COc1ccc(CCN(C)CCCC(C#N)(c2ccc(OC)c(OC)c2)C(C)C)cc1OC (configuration not stated) | Not Active | Not Active | Not Active | Not Active |  |  |  | 
3 | CC(C)Cc1ccc([C@@H](C)C(=O)O)cc1 [(R)-IBUPROPHEN] | Not Active | Not Active | Not Active | Not Active | Not Active | Not Active | Not Active | 
4 | CN(C)CCOC(c1ccccc1)c1ccccc1 [DIPHENHYDRAMINE] | Not Active |  |  | Not Active | Not Active |  |  | 
5 | Clc1ccc(COC(Cn2ccnc2)c2ccc(Cl)cc2Cl)cc1 (configuration not stated) [ECONAZOLE] | Not Active |  | Not Active |  |  |  |  | 
6 | CCN(CC)CCOc1ccc(/C(=C(/Cl)c2ccccc2)c2ccccc2)cc1 [ENCLOMIPHENE] |  |  |  | Not Active |  | Not Active | Not Active | IC50 ([1]; read-out: IC50): 1480 nM; Ki ([1]; read-out: Ki): 215 nM; IC50 ([2]; read-out: IC50): 1770 nM; Ki ([2]; read-out: Ki): 1270 nM
7 | Fc1ccc(C(c2ccc(F)cc2)N2CCN(C/C=C/c3ccccc3)CC2)cc1 [FLUNARIZINE] |  |  |  |  |  | Not Active | Not Active | IC50 ([1]; read-out: IC50): 222 nM; Ki ([1]; read-out: Ki): 32 nM; IC50 (D(3) dopamine receptor; read-out: IC50): 97 nM; Ki (D(3) dopamine receptor; read-out: Ki): 33 nM; Ki (Mu-type opioid receptor): 2120 nM; IC50 (Mu-type opioid receptor; read-out: IC50): 5240 nM
8 | CNCCC(Oc1ccc(C(F)(F)F)cc1)c1ccccc1 (configuration not stated) [FLUOXETINE] | Not Active |  |  | Not Active | Not Active | Not Active | Not Active | 
9 | Cc1ccc(NC(=O)c2ccc(CN3CCN(C)CC3)cc2)cc1Nc1nccc(-c2cccnc2)n1 [IMATINIB] | Not Active |  | Not Active | Not Active | Not Active | Not Active | Not Active | 
10 | CC(C)Oc1ccc2c(=O)c(-c3ccccc3)coc2c1 [IPRIFLAVONE] | Not Active | Not Active | Not Active | Not Active | Not Active | Not Active | Not Active | 
11 | CC(C)NCC(O)c1ccc(O)c(O)c1 (configuration not stated) [ISOPROTERENOL] | Not Active | Not Active | Not Active | Not Active | Not Active | Not Active | Not Active | 
12 | CNC1(c2ccccc2Cl)CCCCC1=O (configuration not stated) [KETAMINE] | Not Active | Not Active | Not Active | Not Active | Not Active | Not Active | Not Active | 
13 | N#Cc1ccc(C(c2ccc(C#N)cc2)n2cncn2)cc1 [LETROZOLE] | Not Active | Not Active | Not Active | Not Active | Not Active | Not Active | Not Active | 
14 | CCN1CCC[C@H]1CNC(=O)c1cc(S(N)(=O)=O)ccc1OC [LEVOSULPIRIDE] | Not Active | Not Active | Not Active | Not Active |  | Not Active | Not Active | 
15 | CCN(CC)CC(=O)Nc1c(C)cccc1C [LIDOCAINE] | Not Active | Not Active | Not Active | Not Active | Not Active |  |  | 
16 | O=C1Nc2ccc(Cl)cc2C(c2ccccc2Cl)=NC1O (configuration not stated) [LORAZEPAM] | Not Active | Not Active | Not Active | Not Active | Not Active | Not Active | Not Active | 

Row | Molecule | IC50 ([1]; sf9) | IC50 (D(1A) dopamine receptor) | IC50 ([2]; cho-k1) | IC50 (Mu-type opioid receptor; cho-k1) | IC50 (D(3) dopamine receptor; cho) | IC50 (Cytochrome P450 2C9) | Ki (Cytochrome P450 2C9) | also measured
17 | CO[C@@H]1[C@@H](OC)[C@H](C)[C@@](O)(CC(=O)O)O[C@H]1[C@H](C)[C@H]1O[C@@]2(CC[C@@](C)([C@H]3CC[C@@](C)([C@@H]4O[C@@H]([C@H]5O[C@](C)(O)[C@H](C)C[C@@H]5C)C[C@@H]4O[C@@H]4C[C@H](OC)[C@@H](OC)[C@H](C)O4)O3)O2)C[C@H](O)[C@H]1C [MADURAMICIN ACID] |  |  | Not Active | Not Active |  | Not Active | Not Active | IC50 ([1]; read-out: IC50): 1610 nM; Ki ([1]; read-out: Ki): 234 nM; IC50 (D(3) dopamine receptor; read-out: IC50): 27 nM; Ki (D(3) dopamine receptor; read-out: Ki): 9.34 nM
18 | COc1c2occc2cc2ccc(=O)oc12 [METHOXSALEN] | Not Active | Not Active | Not Active | Not Active | Not Active | Not Active | Not Active | 
19 | C[C@H]1C[C@@H]2[C@H]([C@@H](O)C[C@@]3(C)[C@H]2CC[C@]3(O)C(=O)CO)[C@@]2(C)C=CC(=O)C=C12 [METHYLPREDNISOLONE] | Not Active | Not Active | Not Active | Not Active | Not Active | Not Active | Not Active | 
20 | Cc1cccc(C)c1OCC(C)N (configuration not stated) [MEXILETINE] | Not Active | Not Active | Not Active | Not Active | Not Active | Not Active | Not Active | 
21 | Nc1cc(N2CCCCC2)nc(N)[n+]1[O-] [MINOXIDIL] | Not Active | Not Active | Not Active | Not Active | Not Active | Not Active | Not Active | 
22 | CO[C@H]1/C=C/O[C@@]2(C)Oc3c(C)c(O)c4c(O)c(c(/C=N/N5CCN(C6CCCC6)CC5)c(O)c4c3C2=O)NC(=O)/C(C)=C\C=C\[C@H](C)[C@H](O)[C@@H](C)[C@@H](O)[C@@H](C)[C@H](OC(C)=O)[C@@H]1C [RIFAPENTINE] | Not Active | Not Active | Not Active | Not Active | Not Active | Not Active | Not Active | 
23 | CCCCOc1cc(CC2CNC(=O)N2)ccc1OC (configuration not stated) [RO-201724] | Not Active | Not Active | Not Active | Not Active | Not Active | Not Active | Not Active | 
24 | CC[C@@H](C(=O)[C@@H](C)[C@@H](O)[C@H](C)[C@@H]1O[C@@H]([C@@H](CC)C(=O)O)CC[C@@H]1C)[C@H]1O[C@]2(C=C[C@@H](O)[C@]3(CC[C@@](C)([C@H]4CC[C@](O)(CC)[C@H](C)O4)O3)O2)[C@H](C)C[C@@H]1C [SALINOMYCIN] | Not Active | Not Active | Not Active |  | Not Active | Not Active | Not Active | 
25 | CN[C@H]1CC[C@@H](c2ccc(Cl)c(Cl)c2)c2ccccc21 [SERTRALINE] |  |  |  | Not Active | Not Active | Not Active | Not Active | IC50 ([2]; read-out: IC50): 507 nM; Ki ([2]; read-out: Ki): 365 nM
26 | NC(=O)N1C(=O)/C(=C(\O)c2cccs2)c2cc(Cl)ccc21 [TENIDAP] | Not Active | Not Active | Not Active | Not Active | Not Active |  |  | 
27 | COc1cc2nc(N3CCN(C(=O)C4CCCO4)CC3)nc(N)c2cc1OC (configuration not stated) [TERAZOSIN] |  | Not Active | Not Active | Not Active | Not Active | Not Active | Not Active | 
28 | CCCCNc1ccc(C(=O)OCCN(C)C)cc1 [TETRACAINE] | Not Active | Not Active | Not Active | Not Active | Not Active |  |  | 
29 | Cn1c(=O)c2nc[nH]c2n(C)c1=O.O [THEOPHYLLINE] | Not Active | Not Active | Not Active | Not Active | Not Active |  |  | 
30 | O=C(Nc1ccc(Br)cc1)c1cc(Br)cc(Br)c1O [TRIBROMSALAN] | Not Active | Not Active | Not Active |  | Not Active |  |  | 
31 | MANGANESE CHLORIDE ANHYDROUS | Not Active | Not Active | Not Active |  | Not Active | Not Active | Not Active | Ki ([1]; sf9): Not Active; Ki (D(1A) dopamine receptor): Not Active; Ki (D(3) dopamine receptor; cho): Not Active; Ki ([2]; cho-k1): Not Active
32 | SODIUM ORTHOVANAD | Not Active | Not Active | Not Active |  | Not Active | Not Active | Not Active | Ki ([1]; sf9): Not Active; Ki (D(1A) dopamine receptor): Not Active; Ki (D(3) dopamine receptor; cho): Not Active; Ki ([2]; cho-k1): Not Active
